US20120088759A1, “THIAZOLIDIN-4-ONE AND [1,3]-THIAZINAN-4-ONE COMPOUNDS AS OREXIN RECEPTOR ANTAGONISTS” (priority 2009, published 2012)

Columns and labels:
human orexin-1 receptor = target: T1, human orexin-1 receptor (Homo sapiens, UniProt O43613); test: FLIPR intracellular calcium assay, orexin receptor antagonistic activity (OX1); type: cell-based; conditions: CHO cells expressing human orexin-1 receptor; 3 nM orexin-A; normalized to on-plate reference; *n = geometric mean from n values
T1 construct: expressed in transfected cells; host or cells: CHO (Chinese hamster ovary) cells, kept under G418
T1 sequence (O43613 1-425): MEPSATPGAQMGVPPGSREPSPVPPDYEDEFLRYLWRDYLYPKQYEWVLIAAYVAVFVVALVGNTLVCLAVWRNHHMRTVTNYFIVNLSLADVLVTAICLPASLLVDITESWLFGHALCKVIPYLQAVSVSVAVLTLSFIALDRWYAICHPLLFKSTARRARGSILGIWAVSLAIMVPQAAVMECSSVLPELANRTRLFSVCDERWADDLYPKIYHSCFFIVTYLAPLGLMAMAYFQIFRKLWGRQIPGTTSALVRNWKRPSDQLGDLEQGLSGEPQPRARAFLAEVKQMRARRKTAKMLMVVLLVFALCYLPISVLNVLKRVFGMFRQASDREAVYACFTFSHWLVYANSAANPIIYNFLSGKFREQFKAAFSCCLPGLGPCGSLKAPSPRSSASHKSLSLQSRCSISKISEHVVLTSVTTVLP
Procedure: (§1) The orexin receptor antagonistic activity of the compounds of formula (I) is determined in accordance with the following experimental method.
(§2) Chinese hamster ovary (CHO) cells expressing the human orexin-1 receptor and the human orexin-2 receptor, respectively, are grown in culture medium (Ham F-12 with L-Glutamine) containing 300 μg/ml G418, 100 U/ml penicillin, 100 μg/ml streptomycin and 10% heat inactivated fetal calf serum (FCS). The cells are seeded at 20′000 cells/well into 384-well black clear bottom sterile plates (Greiner). The seeded plates are incubated overnight at 37° C. in 5% CO2.
(§3) Human orexin-A as an agonist is prepared as 1 mM stock solution in MeOH:water (1:1), diluted in HBSS containing 0.1% bovine serum albumin (BSA), NaHCO3: 0.375 g/l and 20 mM HEPES for use in the assay at a final concentration of 3 nM.
(§4) Antagonists are prepared as 10 mM stock solution in DMSO, then diluted in 384-well plates using DMSO followed by a transfer of the dilutions into in HBSS containing 0.1% bovine serum albumin (BSA), NaHCO3: 0.375 g/l and 20 mM HEPES. On the day of the assay, 50 μl of staining buffer (HBSS containing 1% FCS, 20 mM HEPES, NaHCO3: 0.375 g/l, 5 mM probenecid (Sigma) and 3 μM of the fluorescent calcium indicator fluo-4 AM (1 mM stock solution in DMSO, containing 10% pluronic) is added to each well. The 384-well cell-plates are incubated for 50 min at 37° C. in 5% CO2 followed by equilibration at rt for 30-120 min before measurement.
(§5) Within the Fluorescent Imaging Plate Reader (FLIPR Tetra, Molecular Devices), antagonists are added to the plate in a volume of 10 μl/well, incubated for 10 min and finally 10 μl/well of agonist is added. Fluorescence is measured for each well at 1 second intervals, and the height of each fluorescence peak is compared to the height of the fluorescence peak induced by 3 nM orexin-A with vehicle in place of antagonist. For each antagonist, the IC50 value (the concentration of compound needed to inhibit 50% of the agonistic response) is determined and normalized using the obtained IC50 value of a on-plate reference compound. Optimized conditions were achieved by adjustment of pipetting speed and cell splitting regime. The calculated IC50 values of the compounds may fluctuate depending on the daily cellular assay performance. Fluctuations of this kind are known to those skilled in the art.

human orexin-2 receptor = target: T2, human orexin-2 receptor (Homo sapiens, UniProt O43614); test: FLIPR intracellular calcium assay, orexin receptor antagonistic activity (OX2); type: cell-based; conditions: CHO cells expressing human orexin-2 receptor; 3 nM orexin-A; normalized to on-plate reference; *n = geometric mean from n values
T2 construct: expressed in transfected cells; host or cells: CHO (Chinese hamster ovary) cells, kept under G418
T2 sequence (O43614 1-444): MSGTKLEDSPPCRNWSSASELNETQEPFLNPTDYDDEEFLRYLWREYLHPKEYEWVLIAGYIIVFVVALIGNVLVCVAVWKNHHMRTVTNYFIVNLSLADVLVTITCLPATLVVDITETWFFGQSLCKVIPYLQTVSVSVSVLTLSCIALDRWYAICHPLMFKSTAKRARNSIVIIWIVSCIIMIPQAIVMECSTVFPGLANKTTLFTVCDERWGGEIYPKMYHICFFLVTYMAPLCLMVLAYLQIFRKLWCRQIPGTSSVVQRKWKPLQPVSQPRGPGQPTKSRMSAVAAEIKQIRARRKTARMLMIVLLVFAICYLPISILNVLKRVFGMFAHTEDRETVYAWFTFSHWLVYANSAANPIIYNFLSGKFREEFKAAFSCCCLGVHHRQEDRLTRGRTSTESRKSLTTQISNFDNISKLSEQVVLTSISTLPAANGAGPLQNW
Procedure: as §1, §2, §3, §4, §5

Row | Structure (SMILES) | IC50 (human orexin-1 receptor) [nM] | IC50 (human orexin-2 receptor) [nM]
1 | COc1cc(F)cc(OC)c1C1SC(C)C(=O)N1Cc1ccc(OC(F)(F)F)cc1 (centres unmarked) [Example 36, 2-(4-Fluoro-2,6-dimethoxy-phenyl)-5-methyl-3-(4-trifluoromethoxy-benzyl)-thiazolidin-4-one] | 171 | 33
2 | CCOc1ccc(CN2C(=O)CSC2c2c(OC)ccc3c2OCO3)cc1 (centres unmarked) [Example 11, 3-(4-Ethoxy-benzyl)-2-(5-methoxy-benzo[1,3]dioxol-4-yl)-thiazolidin-4-one] | 885 | 46
3 | CCOc1ccc(CN2C(=O)CSC2c2c(OC)ccnc2OC)cc1 (centres unmarked) [Example 26, 2-(2,4-Dimethoxy-pyridin-3-yl)-3-(4-ethoxy-benzyl)-thiazolidin-4-one] | 4300 | 126
4 | CCOc1ccc(CN2C(=O)CS(=O)(=O)C2c2c(OC)cccc2OC)cc1 (centres unmarked) [Example 290, 2-(2,6-Dimethoxy-phenyl)-3-(4-ethoxy-benzyl)-1,1-dioxo-thiazolidin-4-one] | 375 | 21
5 | COc1cccc(OC)c1C1SCC(=O)N1Cc1ccc(Oc2cccc(C)n2)cc1 (centres unmarked) [Example 283, 2-(2,6-Dimethoxy-phenyl)-3-[4-(6-methyl-pyridin-2-yloxy)-benzyl]-thiazolidin-4-one] | 942 | 51
6 | CCOc1ccccc1C1SCC(=O)N1Cc1ccc(F)c(F)c1 (centres unmarked) [Example 65, 3-(3,4-Difluoro-benzyl)-2-(2-ethoxy-phenyl)-thiazolidin-4-one] | 1430 | 21
7 | COc1cccc(OC)c1C1SC(C)C(=O)N1Cc1ccc2ccccc2c1 (centres unmarked) [Example 14, 2-(2,6-Dimethoxy-phenyl)-5-methyl-3-naphthalen-2-ylmethyl-thiazolidin-4-one] | 31 | 44
8 | CCOc1ccc(CN2C(=O)C(C)(C)SC2c2c(OC)cccc2OC)cc1 (centres unmarked) [Example 175, 2-(2,6-Dimethoxy-phenyl)-3-(4-ethoxy-benzyl)-5,5-dimethyl-thiazolidin-4-one] | 86 | 663
9 | CCOc1ccc(CN2C(=O)CSC2c2c(OC)ccc3c(C)noc23)cc1 (centres unmarked) [Example 19, 3-(4-Ethoxy-benzyl)-2-(6-methoxy-3-methyl-benzo[d]isoxazol-7-yl)-thiazolidin-4-one] | 8120 | 153
10 | CCOc1ccccc1CN1C(=O)CSC1c1c(OC)cccc1OC (centres unmarked) [Example 101, 2-(2,6-Dimethoxy-phenyl)-3-(2-ethoxy-benzyl)-thiazolidin-4-one] | 488 | 51

More lines, now with the values ahead:

Row | IC50 (human orexin-1 receptor) [nM] | IC50 (human orexin-2 receptor) [nM] | Structure (SMILES)
11 | 1560 | 342 | CCOc1ccc(CN2C(=O)CSC2c2c(OC)ccc3nc(C)oc23)cc1 (centres unmarked) [Example 20, 3-(4-Ethoxy-benzyl)-2-(6-methoxy-2-methyl-benzooxazol-7-yl)-thiazolidin-4-one]
12 | 323 | 10 | COc1cccc(OC)c1C1SCC(=O)N1Cc1ccc(OCC(F)(F)F)cc1 (centres unmarked) [Example 18, 2-(2,6-Dimethoxy-phenyl)-3-[4-(2,2,2-trifluoro-ethoxy)-benzyl]-thiazolidin-4-one]
13 | 1830 | 125 | COc1cccc(OC)c1C1SCC(=O)N1Cc1ccc(-c2ccccc2)cc1 (centres unmarked) [Example 203, 3-Biphenyl-4-ylmethyl-2-(2,6-dimethoxy-phenyl)-thiazolidin-4-one]
14 | 244 | 43 | CCOc1ccc(CN2C(=O)C(C)SC2c2c(OC)cccc2OC)cc1 (centres unmarked) [Example 13, 2-(2,6-Dimethoxy-phenyl)-3-(4-ethoxy-benzyl)-5-methyl-thiazolidin-4-one]
15 | 1220 | 135 | COc1cccc(OC)c1C1SCC(=O)N1Cc1ccc(Oc2ncccc2C)cc1 (centres unmarked) [Example 285, 2-(2,6-Dimethoxy-phenyl)-3-[4-(3-methyl-pyridin-2-yloxy)-benzyl]-thiazolidin-4-one]
16 | 166 | 6 | COc1cccc(OC)c1C1N(Cc2ccc(OC(F)(F)F)cc2)C(=O)CS1(=O)=O (centres unmarked) [Example 288, 2-(2,6-Dimethoxy-phenyl)-1,1-dioxo-3-(4-trifluoromethoxy-benzyl)-thiazolidin-4-one]
